Assay results as given in article PMC5218480 (PLoS ONE, 2017).

System: MV-4-11 cells
Test: Gene expression microarray analysis (Affymetrix PrimeView) and GSEA
Assay type: cell-based, human
Parameters: RFU PODN (11730768_x_at) / Fold change /veh PODN (11730768_x_at) / RFU LINC00158 (11744669_a_at) / Fold change /veh LINC00158 (11744669_a_at) / RFU DUSP10 (11751237_a_at) / Fold change /veh DUSP10 (11751237_a_at) / RFU ID3 (11757404_x_at) / Fold change /veh ID3 (11757404_x_at) / RFU PLEKHG5 (11737974_s_at) / Fold change /veh PLEKHG5 (11737974_s_at) / RFU LRRC4B (11730491_at) / Fold change /veh LRRC4B (11730491_at) / RFU GIMAP4 (11747438_a_at) / Fold change /veh GIMAP4 (11747438_a_at) / RFU KRT8 (11758183_x_at) / Fold change /veh KRT8 (11758183_x_at) / RFU CNN1 (11734310_a_at) / Fold change /veh CNN1 (11734310_a_at) / RFU VPS37D (11726825_at) / Fold change /veh VPS37D (11726825_at) / RFU C10orf10 (11716522_x_at) / Fold change /veh C10orf10 (11716522_x_at) / RFU KIR2DL2 /// KIR2DL4 /// KIR2DL5A /// KIR2DL5B /// KIR2DS1 /// KIR2DS2 /// KIR2DS3 /// KIR2DS4 /// KIR3DL3 /// KIR3DL3 /// KIR3DS1 (11738374_at) / Fold change /veh KIR2DL2 /// KIR2DL4 /// KIR2DL5A /// KIR2DL5B /// KIR2DS1 /// KIR2DS2 /// KIR2DS3 /// KIR2DS4 /// KIR3DL3 /// KIR3DL3 /// KIR3DS1 (11738374_at) / RFU C1QL1 (11718748_at) / Fold change /veh C1QL1 (11718748_at) / RFU TMPRSS4 (11747572_a_at) / Fold change /veh TMPRSS4 (11747572_a_at) / RFU HAMP (11756126_x_at) / Fold change /veh HAMP (11756126_x_at) / RFU RNFT2 (11725882_a_at) / Fold change /veh RNFT2 (11725882_a_at) / RFU NR4A2 (11747474_a_at) / Fold change /veh NR4A2 (11747474_a_at) / RFU ABCC12 (11746883_a_at) / Fold change /veh ABCC12 (11746883_a_at) / RFU TMEM136 (11760407_x_at) / Fold change /veh TMEM136 (11760407_x_at) / RFU CLDN22 /// WWC2 (11732394_at) / Fold change /veh CLDN22 /// WWC2 (11732394_at) / RFU HLA-DPB1 (11760878_x_at) / Fold change /veh HLA-DPB1 (11760878_x_at) / RFU SPINT1 (11716480_a_at) / Fold change /veh SPINT1 (11716480_a_at) / RFU GAP43 (11754022_s_at) / Fold change /veh GAP43 (11754022_s_at) / RFU A4GNT (11735810_at) / Fold change /veh A4GNT (11735810_at) / RFU PRB3 (11715151_x_at) / Fold change /veh PRB3 (11715151_x_at) / RFU TUBB4B (11761932_at) / Fold change /veh TUBB4B (11761932_at) / RFU CAPN14 (11732068_a_at) / Fold change /veh CAPN14 (11732068_a_at) / RFU TMCC2 (11721928_a_at) / Fold change /veh TMCC2 (11721928_a_at) / RFU IRGQ (11745062_a_at) / Fold change /veh IRGQ (11745062_a_at) / RFU FAM174B (11720279_a_at) / Fold change /veh FAM174B (11720279_a_at) / RFU TMPRSS4 (11748680_a_at) / Fold change /veh TMPRSS4 (11748680_a_at) / RFU FAM212B (11763350_a_at) / Fold change /veh FAM212B (11763350_a_at) / RFU PLEKHG5 (11743358_a_at) / Fold change /veh PLEKHG5 (11743358_a_at) / RFU ZSCAN30 (11745921_a_at) / Fold change /veh ZSCAN30 (11745921_a_at) / RFU CMKLR1 (11741424_a_at) / Fold change /veh CMKLR1 (11741424_a_at) / RFU LOC101060620 /// MAPK8IP1 (11723275_at) / Fold change /veh LOC101060620 /// MAPK8IP1 (11723275_at) / RFU SPTSSB (11747773_x_at) / Fold change /veh SPTSSB (11747773_x_at) / RFU PRSS12 (11739890_at) / Fold change /veh PRSS12 (11739890_at) / RFU BIN1 (11741810_x_at) / Fold change /veh BIN1 (11741810_x_at) / RFU WNT11 (11732464_a_at) / Fold change /veh WNT11 (11732464_a_at) / RFU C10orf10 (11716521_a_at) / Fold change /veh C10orf10 (11716521_a_at) / RFU C5orf56 (11738089_at) / Fold change /veh C5orf56 (11738089_at) / RFU CYB561 (11721691_x_at) / Fold change /veh CYB561 (11721691_x_at) / RFU ANKRD19P (11752326_a_at) / Fold change /veh ANKRD19P (11752326_a_at) / RFU OR2T12 /// OR2T33 /// OR2T8 (11738714_s_at) / Fold change /veh OR2T12 /// OR2T33 /// OR2T8 (11738714_s_at) / RFU VCAN (11748164_a_at) / Fold change /veh VCAN (11748164_a_at) / RFU JSRP1 (11732532_at) / Fold change /veh JSRP1 (11732532_at) / RFU KRTAP10-11 (11738290_x_at) / Fold change /veh KRTAP10-11 (11738290_x_at) / RFU MYO3A (11730013_a_at) / Fold change /veh MYO3A (11730013_a_at) / RFU EBF3 (11725865_a_at) / Fold change /veh EBF3 (11725865_a_at) / RFU CAMK2N1 (11719241_x_at) / Fold change /veh CAMK2N1 (11719241_x_at) / RFU C5orf56 (11738088_a_at) / Fold change /veh C5orf56 (11738088_a_at) / RFU OLFML3 (11715873_a_at) / Fold change /veh OLFML3 (11715873_a_at) / RFU LOC100653217 /// NTM (11731650_a_at) / Fold change /veh LOC100653217 /// NTM (11731650_a_at) / RFU MAPK11 (11762145_a_at) / Fold change /veh MAPK11 (11762145_a_at) / RFU FIZ1 (11724087_x_at) / Fold change /veh FIZ1 (11724087_x_at) / RFU OASL (11726364_x_at) / Fold change /veh OASL (11726364_x_at) / RFU SOX15 (11748057_x_at) / Fold change /veh SOX15 (11748057_x_at) / RFU CD79A (11719716_a_at) / Fold change /veh CD79A (11719716_a_at) / RFU HIST1H1D (11736915_at) / Fold change /veh HIST1H1D (11736915_at) / RFU CASKIN2 (11723855_a_at) / Fold change /veh CASKIN2 (11723855_a_at) / RFU LOC730098 (11760151_x_at) / Fold change /veh LOC730098 (11760151_x_at) / RFU OR4N2 (11742367_at) / Fold change /veh OR4N2 (11742367_at) / RFU PRRT2 (11749266_a_at) / Fold change /veh PRRT2 (11749266_a_at) / RFU SNX32 (11753110_a_at) / Fold change /veh SNX32 (11753110_a_at) / RFU CDHR5 (11726645_a_at) / Fold change /veh CDHR5 (11726645_a_at) / RFU RCAN1 (11760418_a_at) / Fold change /veh RCAN1 (11760418_a_at) / RFU FAM167A (11723789_a_at) / Fold change /veh FAM167A (11723789_a_at) / RFU FAM26E (11764081_at) / Fold change /veh FAM26E (11764081_at) / RFU ISYNA1 (11749810_s_at) / Fold change /veh ISYNA1 (11749810_s_at) / RFU ACY1 (11761880_at) / Fold change /veh ACY1 (11761880_at) / RFU 11764098_at / Fold change /veh 11764098_at / RFU SAMD14 (11745864_x_at) / Fold change /veh SAMD14 (11745864_x_at) / RFU NPB (11741838_a_at) / Fold change /veh NPB (11741838_a_at) / RFU TMPRSS6 (11731388_a_at) / Fold change /veh TMPRSS6 (11731388_a_at) / RFU KRTAP10-2 (11738614_at) / Fold change /veh KRTAP10-2 (11738614_at) / RFU ARHGAP8 /// PRR5-ARHGAP8 (11727945_x_at) / Fold change /veh ARHGAP8 /// PRR5-ARHGAP8 (11727945_x_at) / RFU KRTAP5-7 /// NADSYN1 (11734609_at) / Fold change /veh KRTAP5-7 /// NADSYN1 (11734609_at) / RFU RASL12 (11751679_a_at) / Fold change /veh RASL12 (11751679_a_at) / RFU CDKN2B (11736163_a_at) / Fold change /veh CDKN2B (11736163_a_at) / RFU PRF1 (11729649_at) / Fold change /veh PRF1 (11729649_at) / RFU, ZNF638 /// ZNF638-IT1 / Fold change vs veh, ZNF638 /// ZNF638-IT1 / RFU, PANK3 / Fold change vs veh, PANK3 / RFU, SH3YL1 / Fold change vs veh, SH3YL1 / RFU, ZEB2 / Fold change vs veh, ZEB2 / RFU, NRIP1 / Fold change vs veh, NRIP1 / RFU, PTTG1IP / Fold change vs veh, PTTG1IP / RFU, CAPN2 / Fold change vs veh, CAPN2 / RFU, MED14 / Fold change vs veh, MED14 / RFU, SNORA58 / Fold change vs veh, SNORA58 / RFU, C1orf63 / Fold change vs veh, C1orf63 / RFU, LRRFIP1 / Fold change vs veh, LRRFIP1 / RFU, NDUFAF7 / Fold change vs veh, NDUFAF7 / RFU, SLC12A2 / Fold change vs veh, SLC12A2 / RFU, IBTK / Fold change vs veh, IBTK / RFU, ESF1 / Fold change vs veh, ESF1 / Fold change vs veh, TMEM50B / RFU, TAOK1 / Fold change vs veh, TAOK1 / RFU, ACBD3 / Fold change vs veh, ACBD3 / RFU, TMA16 / Fold change vs veh, TMA16 / RFU, RWDD3 / Fold change vs veh, RWDD3 / RFU, BCAT1 / Fold change vs veh, BCAT1 / RFU, EDEM3 / Fold change vs veh, EDEM3 / RFU, TMEM33 / Fold change vs veh, TMEM33 / RFU, WDR75 / Fold change vs veh, WDR75 / RFU, AHCTF1 / Fold change vs veh, AHCTF1 / RFU, TFRC / Fold change vs veh, TFRC / RFU, ZDHHC17 / Fold change vs veh, ZDHHC17 / RFU, NOM1 / Fold change vs veh, NOM1 / RFU, ARL8B / Fold change vs veh, ARL8B / RFU, ZBTB11 / Fold change vs veh, ZBTB11 / RFU, TAMM41 / Fold change vs veh, TAMM41 / RFU, KIAA1704 /// LOC100996395 / Fold change vs veh, KIAA1704 /// LOC100996395 / RFU, ING1 / Fold change vs veh, ING1 / RFU, TRMT61B / Fold change vs veh, TRMT61B / RFU, FUBP3 / Fold change vs veh, FUBP3 / RFU, TP53 / Fold change vs veh, TP53 / RFU, TNKS2 / Fold change vs veh, TNKS2 / RFU, ZFP14 / Fold change vs veh, ZFP14 / RFU, ACTR2 / Fold change vs veh, ACTR2 / RFU, PPP3R1 / Fold change vs veh, PPP3R1 / RFU, PIK3R1 / Fold change vs veh, PIK3R1 / RFU, HNRNPA1 / Fold change vs veh, HNRNPA1 / RFU, RNF170 / Fold change vs veh, RNF170 / RFU, ZNF28 / Fold change vs veh, ZNF28 / RFU, RNGTT / Fold change vs veh, RNGTT / RFU, OGT / Fold change vs veh, OGT / RFU, BRD1 / Fold change vs veh, BRD1 / RFU, MARS / Fold change vs veh, MARS / RFU, ZNF655 / Fold change vs veh, ZNF655 / RFU, FAHD1 / Fold change vs veh, FAHD1 / RFU, BDP1 / Fold change vs veh, BDP1 / RFU, LRRCC1 / Fold change vs veh, LRRCC1 / RFU, ARID1A / Fold change vs veh, ARID1A / RFU, ZNF146 / Fold change vs veh, ZNF146 / RFU, ZNF330 / Fold change vs veh, ZNF330 / RFU, GPN3 / Fold change vs veh, GPN3 / RFU, C9orf123 / Fold change vs veh, C9orf123 / RFU, N4BP2L2 / Fold change vs veh, N4BP2L2 / RFU, ARFIP1 / Fold change vs veh, ARFIP1 / RFU, FAM179B / Fold change vs veh, FAM179B / RFU, BCL10 / Fold change vs veh, BCL10 / RFU, UHRF1BP1L / Fold change vs veh, UHRF1BP1L / RFU, BET1 / Fold change vs veh, BET1 / RFU, CNOT2 / Fold change vs veh, CNOT2 / RFU, ZNF268 / Fold change vs veh, ZNF268 / Fold change vs veh, ZNF507 / RFU, DGCR2 / Fold change vs veh, DGCR2 / RFU, WDSUB1 / Fold change vs veh, WDSUB1 / Fold change vs veh, HSP90B1 /// MIR3652 / RFU, ADSS / Fold change vs veh, ADSS / RFU, GK / Fold change vs veh, GK / RFU, ZNF148 / Fold change vs veh, ZNF148 / RFU, TAF9 / Fold change vs veh, TAF9 / RFU, SLC1A5 / Fold change vs veh, SLC1A5 / RFU, SLMO2 / Fold change vs veh, SLMO2 / RFU, ABCC4 / Fold change vs veh, ABCC4 / RFU, LOC101060439 /// RAP1B / Fold change vs veh, LOC101060439 /// RAP1B / RFU, RFX7 / Fold change vs veh, RFX7 / RFU, GTPBP10 / Fold change vs veh, GTPBP10 / RFU, CNEP1R1 / Fold change vs veh, CNEP1R1 / RFU, BIVM-ERCC5 /// ERCC5 / Fold change vs veh, BIVM-ERCC5 /// ERCC5 / RFU, ILF3 / Fold change vs veh, ILF3 / RFU 11762660_at / Fold change /veh 11762660_at / RFU VCAN (11757783_s_at) / Fold change /veh VCAN (11757783_s_at) / RFU DDX43 (11728927_at) / Fold change /veh DDX43 (11728927_at) / RFU KRT8 (11758188_x_at) / Fold change /veh KRT8 (11758188_x_at) / RFU NKD1 (11759106_at) / Fold change /veh NKD1 (11759106_at) / RFU SRD5A1 (11742802_a_at) / Fold change /veh SRD5A1 (11742802_a_at) / RFU TPSAB1 /// TPSB2 (11721975_s_at) / Fold change /veh TPSAB1 /// TPSB2 (11721975_s_at) / RFU GSTM3 (11746129_a_at) / Fold change /veh GSTM3 (11746129_a_at) / RFU IL23R (11737362_x_at) / Fold change /veh IL23R (11737362_x_at) / RFU TMEM51 (11727254_a_at) / Fold change /veh TMEM51 (11727254_a_at) / RFU PIWIL2 (11732686_x_at) / Fold change /veh PIWIL2 (11732686_x_at) / RFU ORM1 (11744905_x_at) / Fold change /veh ORM1 (11744905_x_at) / RFU CCDC152 (11743942_at) / Fold change /veh CCDC152 (11743942_at) / RFU ECM1 (11717891_a_at) / Fold change /veh ECM1 (11717891_a_at) / RFU IL23R (11748794_a_at) / Fold change /veh IL23R (11748794_a_at) / RFU TNFAIP8L3 (11732012_x_at) / Fold change /veh TNFAIP8L3 (11732012_x_at) / RFU MBOAT4 (11741988_at) / Fold change /veh MBOAT4 (11741988_at) / RFU 11764193_at / Fold change /veh 11764193_at / RFU TMEM53 (11763286_at) / Fold change /veh TMEM53 (11763286_at) / RFU MAGEB2 (11727129_at) / Fold change /veh MAGEB2 (11727129_at) / RFU TMEM200A (11744735_a_at) / Fold change /veh TMEM200A (11744735_a_at) / RFU CCDC152 (11751479_a_at) / Fold change /veh CCDC152 (11751479_a_at) / RFU FAM211A (11726209_a_at) / Fold change /veh FAM211A (11726209_a_at) / RFU RGS16 (11746705_a_at) / Fold change /veh RGS16 (11746705_a_at) / RFU VCAN (11755009_s_at) / Fold change /veh VCAN (11755009_s_at) / RFU RHOB (11743442_s_at) / Fold change /veh RHOB (11743442_s_at) / RFU RGS16 (11720943_a_at) / Fold change /veh RGS16 (11720943_a_at) / RFU RGS16 (11720944_at) / Fold change /veh RGS16 (11720944_at) / RFU, VPS4B / Fold change vs veh, VPS4B / RFU, CREB1 / Fold change vs veh, CREB1 / RFU, DNAJC13 / Fold change vs veh, DNAJC13 / RFU, GNAQ / Fold change vs veh, GNAQ / RFU, CDK5R1 / Fold change vs veh, CDK5R1 / RFU, ZRANB3 / Fold change vs veh, ZRANB3 / RFU, CUL4A / Fold change vs veh, CUL4A / RFU, CCNY / Fold change vs veh, CCNY / RFU, UFL1 / Fold change vs veh, UFL1 / RFU, COG3 / Fold change vs veh, COG3 / RFU, DIAPH2 / Fold change vs veh, DIAPH2 / RFU, SKA2 / Fold change vs veh, SKA2 / RFU, AFF3 / Fold change vs veh, AFF3 / RFU, LMF1 / Fold change vs veh, LMF1 / RFU, IPO11 / Fold change vs veh, IPO11 / RFU, DFFB / Fold change vs veh, DFFB / RFU, FOXP1 / Fold change vs veh, FOXP1 / RFU, CARD8 / Fold change vs veh, CARD8 / RFU, STRN3 / Fold change vs veh, STRN3 / RFU, ADK / Fold change vs veh, ADK / RFU, RASSF2 / Fold change vs veh, RASSF2 / RFU, WIPF1 / Fold change vs veh, WIPF1 / RFU, LARP1B / Fold change vs veh, LARP1B / RFU, RASA1 / Fold change vs veh, RASA1 / RFU, RB1 / Fold change vs veh, RB1 / RFU, PPFIA1 / Fold change vs veh, PPFIA1 / RFU, MAT2A / Fold change vs veh, MAT2A / RFU, CCT5 / Fold change vs veh, CCT5 / RFU, WDR92 / Fold change vs veh, WDR92 / RFU, CUX1 / Fold change vs veh, CUX1 / RFU, TTC7A / Fold change vs veh, TTC7A / RFU, TMEM135 / Fold change vs veh, TMEM135 / RFU, DEPTOR / Fold change vs veh, DEPTOR / RFU, CPM / Fold change vs veh, CPM / RFU, DNAJB6 / Fold change vs veh, DNAJB6 / RFU, CACNA2D3 / Fold change vs veh, CACNA2D3 / RFU, DTX4 / Fold change vs veh, DTX4 / RFU, TFCP2 / Fold change vs veh, TFCP2 / RFU, GMCL1 /// GMCL1P1 / Fold change vs veh, GMCL1 /// GMCL1P1 / RFU, AEBP2 / Fold change vs veh, AEBP2 / RFU, SNHG1 /// SNORD22 /// SNORD25 /// SNORD26 /// SNORD27 /// SNORD28 /// SNORD29 /// SNORD31 / Fold change vs veh, SNHG1 /// SNORD22 /// SNORD25 /// SNORD26 /// SNORD27 /// SNORD28 /// SNORD29 /// SNORD31 / Fold change (Aza/veh), C12orf56 (ProbeSet 11735607_a_at) / Fold change (ACY-1035/veh), C12orf56 (ProbeSet 11735607_a_at) / Fold change (Aza/veh), FGFR1OP (ProbeSet 11751329_s_at) / Fold change (ACY-1035/veh), FGFR1OP (ProbeSet 11751329_s_at) / Fold change (Aza/veh), VPS36 (ProbeSet 11739960_a_at) / Fold change (ACY-1035/veh), VPS36 (ProbeSet 11739960_a_at) / RFU SYPL1 (11715823_x_at) / Fold change /veh SYPL1 (11715823_x_at) / RFU IGFBP7 (11715501_s_at) / Fold change /veh IGFBP7 (11715501_s_at) / RFU REEP3 (11722064_at) / Fold change /veh REEP3 (11722064_at) / RFU IGLL1 (11728026_x_at) / Fold change /veh IGLL1 (11728026_x_at): dose or concentration left out as unconfirmed
Conditions: MV-4-11 cells, 48 hours

## Nc1ccc(-c2cccs2)cc1NC(=O)c1ccc2c(c1)cc(C1CC1)n2CCN1CCOCC1 [ACY-1035]
  Fold change /veh ISYNA1 (11749810_s_at): 0.96
